{
  "source": "patent US20140024716A1",
  "about": "“Composition Comprising S-Allyl-L-Cysteine as Active Ingredient for Preventing or Treating Gastrointestinal Disorders” (PHARMAKING CO., LTD., priority 2009, published 2014)",
  "format_in_all_cases": "in vivo, Sprague-Dawley rats",
  "key": {"[1]": {"tested_on": "gastric lesions of rats induced by hydrochloric acid-ethanol", "experiment": "Hydrochloric acid-ethanol-induced gastric lesion animal model", "conditions": "for lengths of gastric lesions: 1 h before HCl-ethanol; for lengths of gastric lesions / gastric lesion inhibiting rate (%): p<0.01", "from_the_text": "(§1) SAC was purchased from TCI Chemical Co. (Tokyo, Japan). Sterile water for injection (Model No. 73H5F21, Dae Han Pharmaceutical Co. Ltd.) was used as a vehicle, and Stillen® was used as a positive control material. 0.5% CMC-Na and sterile water for injection were used as excipients for Stillen®. Hydrochloric acid was purchased from Samjung Chemical, Co., ethanol was purchased from Baker, Co., aspirin was purchased from Sigma, Co., and indomethacin was purchased from Sigma, Co.\n(§2) 7 to 8-week old male specific pathogen free (SPF) HsdKoat:Sprague-Dawley®™ SD®™rats (weight of 7-week old males was in the range of 208.44 to 227.39 g, and weight of 8-week old maleswas in the range of 223.85 to 245.03 g, purchased from Koatech, Co. Ltd., Gyunggido, Korea) were quarantined and acclimated in the Animal Lab for 7 days. The rats were bred at a temperature of 23 3° C., at a relative humidity of 55 15%, with light for 12 hours (light turned on at 08:00 and light turned off at 20:00) while air was ventilated 10 to 20 times/hr in the Animal Experiment Lab of Gyeonggi Bio-Center. Other environments for breeding which might influence the test for the entire test period were not considered for use. The rats were given free access to a solid laboratory diet (Harlan Co. Ltd., USA. Teklad certified global 18% protein rodent diet, 2918C) that was supplied by Folas International. […] The rats were given free access to tap water that was sterilized using a UV sterilizer and a micro filter with water bottles.\n(§3) The rats were classified into a vehicle control group G1 to which only a vehicle was administered, a experimental group G2 to which 100 mg/kg of SAC was administered, a experimental group G3 to which 200 mg/kg of SAC was administered, a experimental group G4 to which 400 mg/kg of SAC was administered, and a positive control group G5 to which 100 mg/kg of Stillen® (55.6 mg/kg as an active ingredient) as a positive control material were administered. Each group included 8 rats in a hydrochloric acid-ethanol-induced animal model (Experiment Example 7) and included 6 rats in an aspirin-induced animal model (Experimental Example 8) and in an indomethacin-induced animal model (Experimental Example 9).\n(§4) The test substance was directly administered to the stomach using an injection tube equipped with a sonde for oral administration in a single dose once per day.\nThe test substances were administered. After one hour, 1.5 ml of 150 mM HCl in 60% ethanol was orally administered to each rat. The rats to which ethanol and SAC were administered were fasted without water in stainless steel breeding cages for 1 hour. After one hour from the hydrochloric acid-ethanol administration, the rats were sacrificed under anesthesia using ether and their stomachs including parts of the duodenum and esophagus were isolated. The insides of the stomachs were immediately washed with 13 ml of a 2% neutral buffered formalin, and the duodenum and esophagus parts were fixed with forceps. Then, 13 ml of the 2% neutral buffered formalin was added thereto and maintained for 5 minutes for fixation. The greater curvature of each stomach was incised, fixed to a dissection table, and unfolded to measure the lengths of gastric lesions using vernier calipers. Photographs of the unfolded stomachs were taken (FIG. 12) and the stomachs were fixed with a 10% neutral buffered formalin. […]"}, "[2]": {"experiment": "General observation (death, weight) of rats in gastric lesion tests", "method": "as §2, with “bottles. […]” for “bottles.”"}, "[3]": {"tested_on": "gastric lesions of rats induced by indomethacin", "experiment": "Indomethacin-induced gastric lesion animal model", "from_the_text": "as §1, §2, §3, §4\nThe rats were fasted for more than 24 hours in a normal environment, SAC was administered, and 25 mg/kg of indomethacin in distilled water was orally administered after 30 minutes. After six hours from the indomethacin administration, the rats were sacrificed under ether anesthesia and their stomachs including parts of the duodenum and esophagus were isolated. The stomachs were fixed for 10 minutes by injecting 12 ml of 2% formalin, the greater curvature of each stomach was incised and unfolded, photographs of the lesions were taken, and then the areas of the lesions were measured using an image analyzer.\nThe gastric lesion inhibiting rate (%) was calculated in the same manner as in Experimental Example 8."}, "[4]": {"tested_on": "gastric lesions of rats induced by aspirin", "experiment": "Aspirin-induced gastric lesion animal model", "conditions": "for Ulcer Area (mm^2), group mean: n = 6", "from_the_text": "as §1, §2, §3, §4\nThe rats were fasted for more than 24 hours in a normal environment, the test substance was administered, and 200 mg/kg of aspirin in 0.15 mol/L HCl was orally administered after 30 minutes. After three hours from the aspirin administration, the rats were sacrificed under ether anesthesia and their stomachs including parts of the duodenum and esophagus were isolated. The stomachs were was fixed for 10 minutes by injecting 12 ml of 2% formalin. The greater curvature of each stomach was incised and unfolded, photographs of the gastric grandular region were taken, and then the areas of the lesions were measured using an image analyzer.\nGastric lesion inhibiting rate (%)=(average area of the vehicle control group-area of gastric lesion of each animal)/average area of the vehicle control group×100."}},
  "note": "Where “and” joins values, the source holds several entries; their conditions need not be identical. Identical values can stand only once.",
  "data": [
    {"smiles": "C=CCSC[C@H](N)C(=O)O", "note": "[SAC, S-allyl-L-cysteine]", "values": [
      {"measurement": "lengths of gastric lesions", "setting": "[1]; 200 mg/kg SAC oral, vehicle 209.60±28.39 mm", "result": "106.65±16.70", "unit": "mm"},
      {"measurement": "gastric lesion inhibiting rate (%)", "setting": "[1]; 200 mg/kg SAC", "result": "41.12±7.97", "unit": "%"},
      {"measurement": "lengths of gastric lesions", "setting": "[1]; 400 mg/kg SAC oral", "result": "72.25±19.33", "unit": "mm"},
      {"measurement": "gastric lesion inhibiting rate (%)", "setting": "[1]; 400 mg/kg SAC", "result": "65.53±9.22", "unit": "%"},
      {"measurement": "gastric lesion inhibiting rate (%) up to", "setting": "[1]; highest rate over SAC doses", "result": "about 66%"},
      {"measurement": "death and other changes", "setting": "[2]; 100, 200, 400 mg/kg SAC oral single dose, rats", "result": "No animals died and no other changes were observed"},
      {"measurement": "significant weight change with respect to administration", "setting": "[2]; 100, 200, 400 mg/kg SAC oral, entire test period", "result": "not observed"},
      {"measurement": "gross finding of stomach", "setting": "[3]; 200 mg/kg and 400 mg/kg SAC", "result": "light gastric lesions and no bleedings"},
      {"measurement": "Ulcer area of individual animal (Animal number 1-6)", "setting": "[3]; G2: 100 mg/kg SAC", "result": "1.3 and 1.6 and 1.5 and 9.4 and 2.3"},
      {"measurement": "Ulcer Area (mm^2), group mean", "setting": "[3]; G2: 100 mg/kg SAC oral, 30 min before 25 mg/kg indomethacin", "result": "3.2±3.47 mm^2 and 3.2 mm^2"},
      {"measurement": "Ulcer area of individual animal (Animal number 1-6)", "setting": "[3]; G3: 200 mg/kg SAC", "result": "0.0 and 0.3 and 0.9 and 0.6 and 0.7 and 0.4"},
      {"measurement": "Ulcer Area (mm^2), group mean", "setting": "[3]; G3: 200 mg/kg SAC, n = 6", "result": "0.5±0.30 mm^2 and 0.5 mm^2"},
      {"measurement": "Ulcer area of individual animal (Animal number 1-6)", "setting": "[3]; G4: 400 mg/kg SAC", "result": "0.8 and 0.4 and 0.1 (2×) and 0.2 and 1.0"},
      {"measurement": "Ulcer Area (mm^2), group mean", "setting": "[3]; G4: 400 mg/kg SAC, n = 6", "result": "0.4±0.36 mm^2 and 0.4 mm^2"},
      {"measurement": "gastric lesion inhibiting rate (%) up to", "setting": "[3]; highest rate over SAC doses", "result": "about 94%"},
      {"measurement": "Ulcer area of individual animal (Animal number 1-6)", "setting": "[4]; G2: 100 mg/kg SAC", "result": "91.68 and 44.12 and 40.95 and 63.52 (2×) and 64.67"},
      {"measurement": "Ulcer Area (mm^2), group mean", "setting": "[4]; G2: 100 mg/kg SAC oral, 30 min before 200 mg/kg aspirin", "result": "68.6±25.94 mm^2 and 68.6 mm^2"},
      {"measurement": "Ulcer area of individual animal (Animal number 1-6)", "setting": "[4]; G3: 200 mg/kg SAC", "result": "46.29 and 19.37 and 5.41 and 27.07 (2×) and 43.86"},
      {"measurement": "Ulcer Area (mm^2), group mean", "setting": "[4]; G3: 200 mg/kg SAC", "result": "31.4±16.99 mm^2 and 31.4 mm^2"},
      {"measurement": "Ulcer area of individual animal (Animal number 1-6)", "setting": "[4]; G4: 400 mg/kg SAC", "result": "63.26 and 9.34 and 70.28 and 40.03 (2×) and 11.58"},
      {"measurement": "Ulcer Area (mm^2), group mean", "setting": "[4]; G4: 400 mg/kg SAC", "result": "32.5±29.78 mm^2 and 32.5 mm^2"},
      {"measurement": "gastric lesion inhibiting rate (%) up to", "setting": "[4]; highest rate over SAC doses", "result": "about 85%"}
    ]}
  ]
}
